Reference: ChEMBL document CHEMBL1201862, “PubChem BioAssay data set” (2004)
Active and inactive are the calls of the source.

Experiments:
P388/ADR = assay: cells; assay type: functional; settings: Mus musculus
SN12K1 = assay: cells; assay type: functional; settings: Homo sapiens
P388 = assay: cells; assay type: functional; settings: Mus musculus
[1] = HEp-2 cell cytotoxicity, dose response, cytotoxicity control for RSV inhibitor project, HTS (AID 2410); assay type: functional; settings: human respiratory syncytial virus
[2] = target: Luciferin 4-monooxygenase (Photinus pyralis, UniProt P08659); assay: Counter Screen for Luciferase-based Assay Positives. [Related pubchem assays: 620, 618, 411 ]
Sequence of Luciferin 4-monooxygenase (P08659 whole entry): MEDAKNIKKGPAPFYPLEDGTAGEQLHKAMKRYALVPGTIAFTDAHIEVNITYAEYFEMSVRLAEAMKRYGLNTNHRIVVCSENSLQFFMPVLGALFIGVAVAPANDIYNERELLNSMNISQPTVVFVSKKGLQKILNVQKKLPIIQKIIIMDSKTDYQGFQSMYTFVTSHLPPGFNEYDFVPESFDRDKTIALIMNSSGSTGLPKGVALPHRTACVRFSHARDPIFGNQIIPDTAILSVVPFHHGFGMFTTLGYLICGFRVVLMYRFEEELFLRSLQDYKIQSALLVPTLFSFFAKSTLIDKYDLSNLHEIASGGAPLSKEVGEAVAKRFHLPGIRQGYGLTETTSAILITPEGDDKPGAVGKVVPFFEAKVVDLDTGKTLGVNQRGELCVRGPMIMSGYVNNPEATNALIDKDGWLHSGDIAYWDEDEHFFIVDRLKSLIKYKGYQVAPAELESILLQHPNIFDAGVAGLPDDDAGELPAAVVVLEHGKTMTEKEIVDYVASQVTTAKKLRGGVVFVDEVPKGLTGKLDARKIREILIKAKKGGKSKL

HT-1080 = assay: cytotoxicity in HT1080 fibrosarcoma cells, cell-based, fluorescence readout (AID 620); assay type: functional; settings: Homo sapiens
Caspase-3 [3] = target: T1, Caspase-3 (Homo sapiens, UniProt P42574); assay type: functional
T1 sequence (P42574 whole entry): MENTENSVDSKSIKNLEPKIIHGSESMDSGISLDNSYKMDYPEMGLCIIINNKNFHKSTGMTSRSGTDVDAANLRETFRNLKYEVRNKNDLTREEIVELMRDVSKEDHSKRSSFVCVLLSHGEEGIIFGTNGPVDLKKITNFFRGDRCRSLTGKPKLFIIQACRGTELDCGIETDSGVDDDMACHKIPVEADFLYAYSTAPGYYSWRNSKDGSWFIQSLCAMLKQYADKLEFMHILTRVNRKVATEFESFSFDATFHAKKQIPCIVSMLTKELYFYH

[4] = target: T2, Sentrin-specific protease 7 (Homo sapiens, UniProt Q9BQF6); assay type: functional;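 also: Luminescence-based dose-response confirmation of ultra-high-throughput screening hits, measuring inhibition of SENP7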
T2 sequence (Q9BQF6 whole entry): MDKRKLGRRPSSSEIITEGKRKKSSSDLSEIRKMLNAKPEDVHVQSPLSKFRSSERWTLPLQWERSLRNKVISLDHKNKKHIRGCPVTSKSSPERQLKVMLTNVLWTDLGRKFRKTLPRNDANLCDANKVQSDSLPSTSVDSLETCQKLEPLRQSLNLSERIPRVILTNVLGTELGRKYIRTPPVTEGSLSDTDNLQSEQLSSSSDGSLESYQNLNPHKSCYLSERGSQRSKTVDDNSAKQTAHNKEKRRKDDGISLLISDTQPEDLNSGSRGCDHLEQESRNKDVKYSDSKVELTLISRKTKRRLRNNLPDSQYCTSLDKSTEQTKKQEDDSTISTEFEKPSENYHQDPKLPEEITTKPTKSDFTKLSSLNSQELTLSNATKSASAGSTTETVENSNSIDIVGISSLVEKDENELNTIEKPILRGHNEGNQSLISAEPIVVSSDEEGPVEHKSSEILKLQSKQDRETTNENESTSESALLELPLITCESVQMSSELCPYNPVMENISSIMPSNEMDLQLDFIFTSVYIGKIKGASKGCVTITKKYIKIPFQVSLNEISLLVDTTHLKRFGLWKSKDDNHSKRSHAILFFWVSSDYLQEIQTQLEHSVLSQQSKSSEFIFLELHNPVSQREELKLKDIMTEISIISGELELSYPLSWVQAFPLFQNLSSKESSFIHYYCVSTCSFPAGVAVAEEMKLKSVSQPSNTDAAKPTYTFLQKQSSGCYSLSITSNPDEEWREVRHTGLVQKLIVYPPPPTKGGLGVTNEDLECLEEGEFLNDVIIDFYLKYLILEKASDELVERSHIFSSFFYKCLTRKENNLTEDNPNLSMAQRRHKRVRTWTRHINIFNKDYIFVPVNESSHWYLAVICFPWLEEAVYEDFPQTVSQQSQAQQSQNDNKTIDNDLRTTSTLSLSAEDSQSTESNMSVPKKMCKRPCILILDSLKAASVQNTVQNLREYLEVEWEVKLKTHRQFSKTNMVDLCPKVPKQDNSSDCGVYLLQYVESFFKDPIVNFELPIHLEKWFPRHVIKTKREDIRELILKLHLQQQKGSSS

[5] = target: T3, Sentrin-specific protease 6 (Homo sapiens, UniProt Q9GZR1); assay type: functional
T3 sequence (Q9GZR1 whole entry): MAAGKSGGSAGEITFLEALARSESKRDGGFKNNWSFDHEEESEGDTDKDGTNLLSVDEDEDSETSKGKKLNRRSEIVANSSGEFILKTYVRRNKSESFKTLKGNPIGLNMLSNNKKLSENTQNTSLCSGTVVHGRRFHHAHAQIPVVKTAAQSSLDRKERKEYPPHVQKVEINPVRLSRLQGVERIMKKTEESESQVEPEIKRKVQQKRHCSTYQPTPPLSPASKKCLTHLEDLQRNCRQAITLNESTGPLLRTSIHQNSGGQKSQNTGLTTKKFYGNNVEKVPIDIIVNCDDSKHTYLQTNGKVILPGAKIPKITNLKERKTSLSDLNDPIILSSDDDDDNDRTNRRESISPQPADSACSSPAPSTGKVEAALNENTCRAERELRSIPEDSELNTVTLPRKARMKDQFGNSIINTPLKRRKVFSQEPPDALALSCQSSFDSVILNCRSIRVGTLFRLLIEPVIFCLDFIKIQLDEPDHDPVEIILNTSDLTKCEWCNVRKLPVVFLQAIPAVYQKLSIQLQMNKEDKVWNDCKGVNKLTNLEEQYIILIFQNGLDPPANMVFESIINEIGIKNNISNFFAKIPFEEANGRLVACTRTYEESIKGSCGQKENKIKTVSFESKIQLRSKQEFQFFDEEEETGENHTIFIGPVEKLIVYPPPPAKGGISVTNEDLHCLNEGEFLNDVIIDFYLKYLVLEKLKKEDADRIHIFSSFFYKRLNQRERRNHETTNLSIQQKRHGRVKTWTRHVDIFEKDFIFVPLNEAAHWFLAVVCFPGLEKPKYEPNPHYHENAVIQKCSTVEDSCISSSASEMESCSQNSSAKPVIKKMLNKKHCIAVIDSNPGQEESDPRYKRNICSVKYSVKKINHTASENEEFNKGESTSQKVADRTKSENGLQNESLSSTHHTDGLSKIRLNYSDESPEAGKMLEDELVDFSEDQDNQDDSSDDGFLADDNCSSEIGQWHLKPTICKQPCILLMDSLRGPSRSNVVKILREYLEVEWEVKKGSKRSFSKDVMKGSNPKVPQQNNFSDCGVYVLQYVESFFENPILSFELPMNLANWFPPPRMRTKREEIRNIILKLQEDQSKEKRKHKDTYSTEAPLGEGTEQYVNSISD

[6] = target: T4, Sentrin-specific protease 8 (Homo sapiens, UniProt Q96LD8); assay type: functional;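 also: luminescence read-out of SENP8 inhibition, dose-response confirmation following an ultra-high-throughput screen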
T4 sequence (Q96LD8 whole entry): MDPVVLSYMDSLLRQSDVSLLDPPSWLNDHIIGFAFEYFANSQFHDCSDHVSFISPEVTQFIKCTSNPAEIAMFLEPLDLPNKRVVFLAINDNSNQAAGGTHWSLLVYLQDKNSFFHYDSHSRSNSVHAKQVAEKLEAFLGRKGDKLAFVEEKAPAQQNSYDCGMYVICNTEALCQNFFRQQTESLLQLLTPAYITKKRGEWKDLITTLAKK

[7] = target: T5, Apoptotic protease-activating factor 1 (Homo sapiens, UniProt O14727); assay: SAR analysis of small molecule Activators of Apaf-1 in a Fluorescent assay.; assay type: functional; settings: read-out: EC50_Mean;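 also: caspase-3 cleavage of fluorogenic Rh110 DEVD substrate downstream of apoptosome activation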
T5 sequence (O14727 whole entry): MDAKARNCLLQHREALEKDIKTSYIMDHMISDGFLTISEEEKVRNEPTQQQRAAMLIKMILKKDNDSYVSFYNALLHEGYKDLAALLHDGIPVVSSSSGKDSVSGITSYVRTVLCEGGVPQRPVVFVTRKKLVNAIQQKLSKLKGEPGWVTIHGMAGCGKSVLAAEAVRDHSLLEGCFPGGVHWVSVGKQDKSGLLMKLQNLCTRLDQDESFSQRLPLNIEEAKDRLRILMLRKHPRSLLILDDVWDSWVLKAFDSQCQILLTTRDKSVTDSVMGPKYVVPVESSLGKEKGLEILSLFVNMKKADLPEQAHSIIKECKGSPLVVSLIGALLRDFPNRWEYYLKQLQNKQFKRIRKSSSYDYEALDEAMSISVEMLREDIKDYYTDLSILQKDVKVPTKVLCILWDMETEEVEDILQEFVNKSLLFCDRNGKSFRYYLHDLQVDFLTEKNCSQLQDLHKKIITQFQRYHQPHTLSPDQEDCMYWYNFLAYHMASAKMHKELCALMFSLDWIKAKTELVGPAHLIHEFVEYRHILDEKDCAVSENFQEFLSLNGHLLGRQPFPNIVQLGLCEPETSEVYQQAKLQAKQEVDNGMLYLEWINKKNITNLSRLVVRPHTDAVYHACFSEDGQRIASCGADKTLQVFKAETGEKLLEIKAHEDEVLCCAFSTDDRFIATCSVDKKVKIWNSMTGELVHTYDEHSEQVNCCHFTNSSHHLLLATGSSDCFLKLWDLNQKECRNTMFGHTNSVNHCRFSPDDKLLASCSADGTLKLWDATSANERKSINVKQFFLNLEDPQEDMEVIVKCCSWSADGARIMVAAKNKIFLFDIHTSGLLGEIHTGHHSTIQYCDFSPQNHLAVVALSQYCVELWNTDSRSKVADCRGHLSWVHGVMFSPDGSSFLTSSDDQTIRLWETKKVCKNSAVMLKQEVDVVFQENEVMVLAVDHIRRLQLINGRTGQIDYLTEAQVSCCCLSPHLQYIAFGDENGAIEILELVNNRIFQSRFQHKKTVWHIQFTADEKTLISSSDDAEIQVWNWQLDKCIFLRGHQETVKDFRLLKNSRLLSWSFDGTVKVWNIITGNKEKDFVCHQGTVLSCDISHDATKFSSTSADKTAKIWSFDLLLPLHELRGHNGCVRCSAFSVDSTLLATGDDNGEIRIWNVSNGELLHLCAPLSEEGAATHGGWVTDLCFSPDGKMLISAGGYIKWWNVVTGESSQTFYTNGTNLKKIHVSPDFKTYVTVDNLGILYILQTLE

[8] = system: Streptococcus sp. 'group A'; assay: growth inhibition of control SK(-) GAS strain, dose response, counter-screen for streptokinase expression inhibitor project, luminescence, kanamycin, BacTiterGlo, confirmation (AID 1900); assay type: functional, organism-based
Streptococcus = assay: Group A Streptococcus viability loss, dose response, counter-screen for streptokinase expression inhibitor project, luminescence, BacTiterGlo (AID 1915); assay type: functional, organism-based;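 also: potency for reduction of bacterial viability or growth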
[9] = inhibitors of HIV Env-driven cell fusion, dose response, cherry-pick (AID 652057); assay type: functional, cell-based
[10] = ZM109 Env clade C HIV-1 fusion inhibitors, dose response, HeLa effector, CEM target cells, luciferase, cherry-pick (AID 652058); assay type: functional, cell-based
[11] = off-target signal loss in HeLa-CEM21 co-culture – HeLa F-luc CTL cells, cherry-picked, counter-screen for HIV-1 Env fusion inhibitor project, dose response (AID 652040); assay type: functional, cell-based;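 also: potency for signal decrease marking cytotoxic or nonspecific inhibition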
[12] = target: T4, Sentrin-specific protease 8; assay: SENP8 protease inhibitors, SAR follow-up, biochemical, luminescence (AID 504501); assay type: functional
Caspase-3 [13] = target: T1, Caspase-3; assay: SAR Analysis of small molecule inhibitors of Sentrin-specific proteases (SENPs) using a Caspase-3 Selectivity assay. [Related pubchem assays (depositor defined):AID2540, AID2599, AID434973, AID489001]; assay type: functional
[14] = target: T3, Sentrin-specific protease 6; assay: SAR Analysis of small molecule inhibitors of Sentrin-specific protease 6 (SENP6) using a Luminescent assay. [Related pubchem assays (depositor defined):AID2582, AID2599]; assay type: functional
[15] = target: T2, Sentrin-specific protease 7; assay: SENP7 protease inhibitors, SAR follow-up, biochemical, luminescence (AID 504497); assay type: functional

SMILES | GI50 (P388/ADR) | GI50 (SN12K1) | GI50 (P388) | IC50 [12] | IC50 (Caspase-3 [13]) | IC50 [14] | IC50 [15] | also measured
CCCSc1nc(COC(=O)NC)c(COC(=O)NC)n1C | 23.8 µM (inactive) | > 100 µM (inactive) | 21.1 µM (inactive) | – | – | – | – | –
CCCC(=O)Nc1ccc(-c2nc3cc(C)ccc3o2)cc1 | – | – | – | – | – | – | – | CC50 [1]: 26.7 µM (active); EC50 [2]: 0.21 µM (active); EC50 (HT-1080): > 50 µM (not active); IC50 (Caspase-3 [3]): 23.5 µM (active); IC50 [4]: 4.35 µM (active); IC50 [5]: 64.7 µM (active); IC50 [6]: 45.2 µM (active)
Cc1ccc(O)c(NC(=O)C2CC(c3ccc(F)cc3)=NO2)c1 (centres undefined) | – | – | – | – | – | – | – | EC50 [7]: > 100 µM (inactive)
Cc1cccc2sc(NC(=O)c3ccc(NS(=O)(=O)c4cccs4)cc3)nc12 | – | – | – | – | – | – | – | EC50 [8]: 2.22 µM (active); EC50 (Streptococcus): 3.77 µM (active); IC50 (Caspase-3 [3]): 36.5 µM (active); IC50 [4]: 7.27 µM (active); IC50 [5]: 8.6 µM (active); IC50 [6]: 11.6 µM (active)
Nc1ccn(C2OC(COC(=O)C34CC5CC(CC(C5)C3)C4)C(O)C2O)c(=O)n1 (centres undefined) | 0.889 µM (active) | 4.46 µM (inactive) | 0.506 µM (active) | – | – | – | – | AC50 [9]: 0.652 µM (active); AC50 [10]: < 0.26 µM (active); AC50 [11]: 36.9 µM (active)
COc1cc(NC(=O)Nc2ccc(F)cc2)cc2sc(NC(=O)c3ccccc3)nc12 | – | – | – | > 99 µM (inactive) | > 99 µM (inactive) | > 99 µM (inactive) | > 99 µM (inactive) | –
C(=N\Nc1ccccc1)/c1cn(Cc2ccccc2)c2ccccc12 | – | – | – | > 99 µM (inactive) | > 99 µM (inactive) | > 99 µM (inactive) | > 99 µM (inactive) | –
CCc1ccc(-c2nc(/C=C/c3ccc(F)cc3)no2)cc1 | – | – | – | > 99 µM (inactive) | > 99 µM (inactive) | > 99 µM (inactive) | > 99 µM (inactive) | –
c1cc2n(n1)CCN2 | 294 µM (inactive) | 1150 µM (inactive) | 361 µM (inactive) | – | – | – | – | –
O=C(Nc1nc2ccsc2c(=O)s1)c1cccs1 | – | – | – | – | – | – | – | EC50 [7]: > 100 µM (inactive)
